Literature values as cited in US6488962B1, “Tablet shapes to enhance gastric retention of swellable controlled-release oral dosage forms” (DepoMed, Inc., priority 2000, dated 2002).

Conditions: oral doses administered with or following a meal

Cc1c(O)cccc1C(=O)N[C@@H](CSc1ccccc1)[C@H](O)CN1C[C@H]2CCCC[C@H]2C[C@H]1C(=O)NC(C)(C)C [nelfinavir]
area under the plasma concentration-time curve, with or following a meal versus without: two to three times greater | peak plasma concentration, with or following a meal versus without: two to three times greater
